Two compounds from patent US5688767A, “Treatment of endotoxin-associated disorders with cationic peptides” (priority 1996, dated 1997) can be followed below.

In brackets after ≈: the same amount, converted by molar mass. Some results are limits rather than exact numbers.

Assay [1] relates to E. coli. Kind of assay: microbe, parasite or virus in culture. The class given is cell-based, Escherichia coli. The protocol: (§1) The minimum inhibitory concentrations of (MIC) of CEME, CEMA and melittin were determined for a number of different bacteria (Table 2). Briefly, cells were grown overnight at 37° C. in LB-S (Luria broth without any salt supplement) and diluted one in 10,000 in the same medium to give concentrations of about 10^4 to 10^5 CFU/ml. The broth dilutions were set up in a 96 well microtiter plate by putting 200 μl of LB-S containing the initial concentration of antibiotic or compound in column 1 and 100 μl of the same medium in columns 2-12. The compounds were diluted by taking 100 μl of broth from column 1 and mixing it with column 2, resulting in a one in two dilution. This was continued to column 10. Finally, 10 μl of bacteria were pipetted into columns 1-11, and the plates incubated overnight at 37° C. The next day the plates were scored for growth in the wells, and the MIC determined.
(§2) Bacteria included the Bort strain of E. coli (Bortolussi, et al., Inf. Immun., 25:293, 1979) that was originally derived from a case of neonatal meningitis, and which is therefore considered a relevant pathogenic strain to study, and the 0111:B4 strain of E. coli (kindly provided by Dr. D. Morrison) which is a standard source of endotoxin. (Kelly, et al., Inf. Immun., 59:4491, 1991). In addition, P. aeruginosa PA01 strain H103, P. aeruginosa M2, P. aeruginosa K799, Eschericha coli UB 1005, Enterobacter cloacae 218S, Salmonella typhimurium MS7953s, Klebsiella pneumoniae ATCC 13883, Xanthomonas maltophilia ATCC 13637, and Acinetobacter calcoacetious 8193 were employed. LPS was obtained from E. coli Bort by the technique of Westphal and Jann, (Westphal, et al., Acad. Press, Inc. NY., 5:83) and from P. aeruginosa H103 by the method of Darveau and Hancock, (Darveau, et al., J. Bacteriol, 155:831, […]). E. coli 0111:B4 LPS was purchased from Sigma.

Assay [2] relates to S. aureus. Kind of assay: microbe, parasite or virus in culture. It counts as cell-based, Staphylococcus aureus. The protocol: as §1
Assay [3] deals with E. cloacae. Kind of assay: microbe, parasite or virus in culture. The class given is cell-based, Enterobacter cloacae. The protocol:
as §1, §2

The target in assay [4] is P. aeruginosa H103 LPS. The experiment in a line: Dansyl polymyxin (DPx) displacement from purified LPS. It counts as binding, Pseudomonas aeruginosa. The settings on record: 2.5 μM DPx, 3 μg/ml LPS, 5 mM HEPES pH 7.2, average of at least three trials; for IC50: read-out: I50, Value in μM. The protocol: In this assay, DPx was incubated with LPS to saturate the binding sites and then, while polycationic compounds are titrated into the reaction, displacement of the DPx was monitored by the decrease in fluorescence (FIG. 9). P. aeruginosa LPS was isolated as previously described (Darveau, et al., J of Bacteriology, 155:831, 1983) Dansyl polymyxin was synthesized as described by Schindler, et al., B. Antimicrobial Agents and Chemo, 8:95, 1975.
The method of Moore, et al., (Antimicrobial Agents and Chemo., 29:496, 1987), was used to test how much DPx was needed to saturate the binding sties on LPS. Briefly, 5 μl samples of 100 μM DPx were titrated sequentially into 1 ml of 3 μg/ml of LPS until a maximum fluorescence was reached. The fluorescence was measured in a Perkin-Elmer 650-10S fluorescence spectrophotometer with an excitation wavelength of 340 nm and an emission wavelength of 485 nm using slit widths of 5 nm. […] For the binding inhibition assays (Moore, et al., Antimicrobial Agents and Chemo., 29:496, 1987), 2.5 μM DPx was added to 3 μg/ml of H103 LPS in 5 mM HEPES pH 7.2. The test compounds were added 5 μl at a time and the decrease in fluorescence due to displacement of the DPx from the LPS was recorded.
When the data was plotted as a double reciprocal plot (FIG. 10), the X-intercept provided a value that is equal to -1/I50.

The subject of assay [5] is P. aeruginosa H309 or E. cloacae 218R1. The class given is cell-based, Pseudomonas aeruginosa; Enterobacter cloacae. The settings on record: 10 μM NPN. From the text: The second assay determined membrane permeability by the ability of 1-N-phenylnaphthylamine(NPN), a small fluorescent probe, to insert itself into the membrane. Normally, very little NPN can penetrate the outer membrane, but in the presence of a membrane permeabilizer it can insert into the hydrophobic membrane resulting in an increase in fluorescence (FIGS. 7 and 8). This N-phenylnaphthylamine uptake assay was previously described by Loh, et al., Antimicrobial Agents and Chemo., 26:546, 1984. Cells were prepared exactly the same as for the lysozyme lysis assay. 1-N-phenylnaphthylamine(NPN) was dissolved in acetone at a concentration of 500 μM. NPN fluorescence was measured in a Perkin-Elmer 650-10S fluorescent spectrophotometer using excitation and emission wavelengths set to 350 nm and 420 nm respectively, with slit widths of 5 nm. The assay was standardized by adding 20 μl of NPN (final concentration of 10 μM) and 10 μl of 0.64 mg/ml of polymyxin B (final concentration of 6.4 μg/ml) into 1 ml of cells, and adjusting the resulting fluorescence to read 90% deflection (90 arbitrary units). Various compounds were tested by adding 10 μl of different concentrations to a cuvette containing 1 ml of cells and 10 μM NPN. Permeabilizing activity was designated as the total fluorescence minus the fluorescence due to NPN alone. Following the fluorescence measurement, the OD600 of the cells was taken to ensure no significant cell lysis had occurred.

Assay [6] relates to P. aeruginosa. The experiment in a line: microbe, parasite or virus in culture. The class given is cell-based, Pseudomonas aeruginosa. The protocol: as §1, §2
Setting [7] is: strain UB1005, Parent of DC2 (Table 2).
[8] abbreviates: strain RN4220, Methicillin sensitive.
[9] abbreviates: strain SAP0017, Methicillin resistant.
Where [10] appears, read: strain 218S, Parent of 218R1 (Table 2).
The mark [11] stands for this setting: strain H188, Antibiotic sensitive.

Take polymyxin B: the MIC is 0.5 µg/mL in assay [1] (setting [7]); over 8 µg/mL in assay [2] (setting [8]); over 8 µg/mL in assay [2] (setting [9]); 0.5 µg/mL in assay [3] (setting [10]); 0.5 µg/mL in assay [6] (strain H187, Parent of H188); 0.06 µg/mL in assay [6] (setting [11]). The same compound returned an MIC in assay [6] (strain H309, Wildtype) of 0.5 µg/mL. The “I50, Value in μg/ml” value in assay [4] amounted to 2.97 ± 0.07 µg/mL. Further, in assay [4], the IC50 was 1.51 ± 0.04 µM. In addition, the “activity in opening up the membrane to NPN” value in assay [5] is “equally active”.

For `CC[C@H](C)[C@H](NC(=O)CNC(=O)[C@@H](NC(=O)[C@H](CCCCN)NC(=O)[C@H](CCCCN)NC(=O)[C@H](Cc1ccccc1)NC(=O)[C@H](CC(C)C)NC(=O)[C@H](CCCCN)NC(=O)[C@H](Cc1c[nH]c2ccccc12)NC(=O)[C@@H](N)CCCCN)[C@@H](C)CC)C(=O)NCC(=O)N[C@@H](C)C(=O)N[C@H](C(=O)N[C@@H](CC(C)C)C(=O)N[C@@H](CCCCN)C(=O)N[C@H](C(=O)N[C@@H](CC(C)C)C(=O)N[C@H](C(=O)N[C@H](C(=O)NCC(=O)N[C@@H](CC(C)C)C(=O)N1CCC[C@H]1C(=O)N[C@@H](C)C(=O)N[C@@H](CC(C)C)C(=O)N[C@@H](CCCCN)C(=O)N[C@@H](CC(C)C)C(=O)N[C@H](C(=O)N[C@@H](CCCCN)C(=O)O)[C@@H](C)O)[C@@H](C)O)[C@@H](C)O)C(C)C)C(C)C` [CEMA], the MIC turned out to be 4 µg/mL (≈ 1.3 µM) in assay [1] (Escherichia coli 0111:B4); 8 µg/mL (≈ 2.61 µM) in assay [1] (Escherichia coli Bort); 4 µg/mL (≈ 1.3 µM) in assay [1] (Escherichia coli UB1005 (Table 9)); 0.7 µg/mL (≈ 0.228 µM) in assay [1] (strain DC2, Polymyxin sensitive); 1.4 µg/mL (≈ 0.457 µM) in assay [1] (strain SC9251, Parent of SC9252); 1.4 µg/mL (≈ 0.457 µM) in assay [1] (strain SC9252, Polymyxin resistant). Further, the MIC was 2.8 µg/mL (≈ 0.913 µM) in assay [1] (setting [7]); over 5.6 µg/mL in assay [2] (setting [8]); over 5.6 µg/mL in assay [2] (setting [9]); 4 µg/mL (≈ 1.3 µM) in assay [3] (Enterobacter cloacae 218S (Table 9)); 1.4 µg/mL (≈ 0.457 µM) in assay [3] (strain 218R1, β-lactam resistant); 2.8 µg/mL (≈ 0.913 µM) in assay [3] (setting [10]). In addition, the MIC in assay [6] (Pseudomonas aeruginosa H103) worked out at 8 µg/mL (≈ 2.61 µM); in assay [6] (Pseudomonas aeruginosa K799), 2.8 µg/mL (≈ 0.913 µM); in assay [6] (strain H187, Parent of H188) it was 2.8 µg/mL (≈ 0.913 µM); in assay [6] (setting [11]), 1.4 µg/mL (≈ 0.457 µM); in assay [6] (strain H309, Wildtype) it was 2.8 µg/mL (≈ 0.913 µM). In addition, in assay [4], the “I50, Value in μg/ml” value came out at 4.12 ± 0.36 µg/mL. Also, in assay [4], the IC50 came out at 1.32 ± 0.117 µM. The “activity in opening up the membrane to NPN” value in assay [5] is “equally active”.
